# Publication PMC8097418, “In Vitro and In Vivo Antibacterial Activities of a Novel Quinolone Compound, OPS-2071, against Clostridioides difficile” (Antimicrobial Agents and Chemotherapy, 2021)
# Where two headings read alike, the source gives them in different places.
# Assays:
# [1] = system: 54 clinically isolated C. difficile strains; test: MIC by agar dilution against 54 clinically isolated strains; type: cell-based, Clostridioides difficile
# Description: (§1) MICs obtained using the agar dilution method were determined visually as described for the CLSI method ([41], [42]). MICs obtained using the broth dilution method were determined visually based on the CLSI method except for using Gifu anaerobic medium (GAM) broth instead of supplemented Brucella broth ([41], [42]).
# [2] = system: hypervirulent and nonhypervirulent strains of C. difficile (62 strains); test: MIC distribution against 20 hypervirulent and 42 nonhypervirulent strains; type: cell-based, Clostridioides difficile; details: for MIC50 / MIC90: Clostridioides difficile
# [3] = system: 10 clinical isolates of C. difficile; test: MIC (broth dilution) and MBC testing, 10 clinical isolates; type: cell-based, Clostridioides difficile; details: 10 clinical isolates
# Description: In this test, MIC testing was performed using the broth dilution method as recommended in the CLSI ([41]). After the MICs were determined, 10 μl of the bacterial suspension from the MIC test tube was inoculated onto agar plates and incubated at 37°C. The bacterial colonies were then counted and bacterial numbers were calculated. The MBC was considered to be the lowest concentration of the antibiotics that prevented growth and reduced the inoculum by >99.9% within 48 h, irrespective of counts of survivors at higher antibiotic concentrations.
# [4] = system: C. difficile ATCC 700057; test: MIC by agar dilution (CLSI) against quality control strain; type: cell-based, Clostridioides difficile; details: Clostridioides difficile, read-out: MIC
# Description: as §1
# [5] = system: C. difficile ATCC 700057; test: MIC by broth dilution (GAM broth); type: cell-based, Clostridioides difficile; details: Clostridioides difficile, read-out: MIC
# Description: as §1
# [6] = system: C. difficile ATCC 700057; test: Killing kinetics (time-kill curves); type: cell-based, Clostridioides difficile
# Description: The test tubes were incubated for 48 h. The CFU/ml values of the bacterial suspensions were calculated at 0, 2, 4, 6, 24, and 48 h by culturing 0.1-ml samples of serial 10-fold dilutions on GAM agar plates at 37°C under anaerobic conditions and then counting the number of growing colonies. The CFU/ml value at each time point is from one sample of datum.
# [7] = system: C. difficile ATCC 700057; type: cell-based, Clostridioides difficile
# [8] = system: C. difficile ATCC 700057; test: Mutant prevention concentration; type: cell-based, Clostridioides difficile
# Description: The mutant prevention concentration was measured by plating approximately 10^10 CFU of C. difficile ATCC 700057 onto a GAM agar plate containing the test agent. Inoculated plates were incubated for 3 days, and the MIC for each antibiotic that prevented the growth of colonies was determined using the agar dilution method as described by the CLSI ([41]). The MIC values of grown colonies were compared to determine which bacteria were resistant. The MPC was defined as the lowest concentration that prevented the growth of resistant bacteria.
# [9] = Pharmacokinetics in the rat (plasma, oral and intravenous); type: in vivo, male SD rats
# Description: OPS-2071 was orally or intravenously administered at 1 mg/kg to male SD rats, and plasma was collected 0.5, 1, 2, 4, 6, 8, 12, 24, 48, and 72 h postdose (oral, n = 3 for each time point) or 0.083, 0.25, 0.5, 1, 2, 4, 6, 8, 12, 24, 48, and 72 h postdose (intravenous, n = 3 for each time point). After solid-phase extraction, the OPS-2071 concentration in plasma was determined by a validated LC-ESI-MS/MS method, and bioavailability was calculated. The mass spectrometer QTRAP 5500 (AB Sciex Pte. Ltd.) and high-performance liquid chromatography Prominence UFLCXR system (Shimadzu Corp.) were used. The PK parameters (AUCt) were determined with the same WinNonlin professional software, and the bioavailability was calculated from AUCt,oral and AUCt,intravenous.
# [10] = system: C. difficile ATCC 43255; test: In vivo hamster model of C. difficile infection; parameters: species or system golden Syrian hamsters
# Description: C. difficile ATCC 43255 was cultured on GAM agar, and a bacterial suspension was prepared in saline ([26]). […] Hamsters were infected using oral gavage with 0.5 ml of suspension containing approximately 10^6 CFU of C. difficile (day −1). The next day, the animals were administered clindamycin phosphate (0.2 mg/ml in water) by oral gavage at a dose of 5 ml/kg of body weight, for a final dose of 1 mg/kg (day 0). The animals were allocated to the test groups using a stratified randomization method based on the body weight of each infected animal. The test compounds were administered by oral gavage once daily for 5 days (OPS-2071, 0.008 to 1 mg/kg; fidaxomicin, 0.04 mg/kg to 5 mg/kg; vancomycin, 0.04 to 5 mg/kg [5-fold dilution]). Infected control animals were administered 5% (wt/vol) gum arabic solution by oral gavage. […] The cecal contents of dead animals were tested for toxin A and toxin B using C.Diff Quik Chek Complete (Abbott Diagnostics Medical Co., Ltd., Tokyo, Japan) to confirm that the death of the animal was due to CDI.
# The statistical significance of OPS-2071, fidaxomicin, and vancomycin treatment was analyzed at all doses against vehicle. Survival curves were estimated for each group using the Kaplan-Meier method. Differences in survival homogeneity in each group were evaluated with a log-rank test with Dunnett-type (two-sided) comparison.
# [11] = system: C. difficile ATCC 43255; test: MIC against the infection strain; type: cell-based, Clostridioides difficile
# [12] = in vitro; details: mouse
# [13] = nonhypervirulent strains (n = 42)
smiles,measurement,setting,value
"Cc1c(-c2cnc(N)c(C#N)c2)c(F)cc2c(=O)c(C(=O)O)cn(C3CC3)c12 [OPS-2071, 7-(6-amino-5-cyanopyridin-3-yl)-1-cyclopropyl-6-fluoro-8-methyl-4-oxo-1,4-dihydroquinoline-3-carboxylic acid]",MIC50 fold higher than that of fidaxomicin,[1]; 54 clinical isolates,2 fold
same,MIC50 fold lower than those of vancomycin and metronidazole,[1]; 54 clinical isolates,16 fold
same,MIC90 fold lower than that of fidaxomicin,[1]; 54 clinical isolates,16 fold
same,MIC90 fold lower than those of vancomycin and metronidazole,[1]; 54 clinical isolates,8 fold
same,MIC range,[1]; 54 clinically isolated C. difficile strains,0.016 to 1 µg/mL
same,MIC50,[1]; Clostridioides difficile,0.125 µg/mL
same,MIC90,"[1]; Clostridioides difficile, 54 clinically isolated C. difficile strains",0.5 µg/mL
same,MIC50,[2]; hypervirulent strains (n = 20),0.03 µg/mL
same,MIC90,[2]; hypervirulent strains (n = 20),0.25 µg/mL
same,MIC50,[2]; [13],0.03 µg/mL
same,MIC90,[2]; [13],0.125 µg/mL
same,Cumulative percentage of strains,"[2]; Hyp (n = 20), MIC 0.063 μg/ml",75%
same,Cumulative percentage of strains,"[2]; Hyp (n = 20), MIC 0.25 μg/ml",100%
same,Cumulative percentage of strains,"[2]; Non-hyp (n = 42), MIC 0.063 μg/ml",88%
same,Cumulative percentage of strains,"[2]; Non-hyp (n = 42), MIC 0.25 μg/ml",100%
same,MIC range,[2]; hypervirulent strains (n = 20),0.03 to 0.25 µg/mL
same,MIC range,[2]; [13],0.03 to 0.25 µg/mL
same,MBC90/MIC90,[3],1
same,MBC Range,[3]; >99.9% reduction within 48 h,0.03 to 0.5 µg/mL
same,MIC range,[3]; broth dilution,0.03 to 0.5 µg/mL
same,MIC90,"[3]; Clostridioides difficile, broth dilution, read-out: MIC90",0.5 µg/mL
same,MBC,"[3]; Clostridioides difficile, read-out: MBC90",0.5 µg/mL
same,MIC,"[4]; ATCC700057, agar dilution, determined for the spontaneous resistance assay",0.03 µg/mL
same,MIC,"[4]; ATCC700057, quality control strain ATCC 700057, CLSI method",0.031 µg/mL
same,MIC,"[5]; ATCC700057, broth dilution, retested for the time-kill assay",0.03 µg/mL
same,MIC,"[5]; ATCC700057, broth method, determined for the PAE assay",0.06 µg/mL
same,regrowth of the bacteria,[6]; after 48 h of incubation,regrowth of the bacteria did not occur
same,time to undetectable level of viable bacteria,[6]; concentrations higher than the MIC,≤ 24 h
same,reduction of viable bacteria,"[6]; concentrations higher than the MIC, first 2 h",2 log
same,Frequency of spontaneous resistance,[7]; 4× MIC,<9.17 × 10^–9
same,Frequency of spontaneous resistance,[7]; 16× MIC,<9.17 × 10^–9
same,Frequency of spontaneous resistance,[7]; 64× MIC,<9.17 × 10^–9
same,MPC fold lower than those of fidaxomicin and vancomycin,[8],16 fold
same,mutant prevention concentration (MPC),"[8]; approximately 10^10 CFU, 3 days",0.5 µg/mL
same,plasma concentrations at 48 and 72 h after administration,[9]; 1 mg/kg oral or intravenous,< 0.5 ng/mL
same,bioavailability,"[9]; male, SD, rat, plasma, 1 mg/kg, from AUCt oral and intravenous",2.9%
same,AUC(0-t),"[9]; male, SD, rat, intravenous, 1 mg/kg, plasma",672 ng·h/mL
same,AUC(0-t),"[9]; male, SD, rat, oral, 1 mg/kg, plasma",19.5 ng·h/mL
same,ED50 fold lower than that of fidaxomicin,"[10]; hamster, in vivo",52.1 fold
same,ED50 fold lower than that of vancomycin,"[10]; hamster, in vivo",39.0 fold
same,50% effective dose (ED50),"[10]; survival on day 20, oral once daily for 5 days, probit method",0.0313 mg/kg/day
same,dosages with significant efficacy compared with vehicle control,"[10]; survival, log-rank test",≥ 0.04 mg/kg
same,MIC,[11],0.016 µg/mL
same,IC50 at 110 min,[12],> 100 µg/mL
